Measurements from patent US20040067507A1, “Liver inflammation predictive genes” (priority 2002, published 2004).
Like-named read-outs stand apart in the source and are kept apart here.

Test system: Sprague Dawley rats Crl:CD
Type: in vivo, rat
Excerpt: In addition to the database described and utilized herein, other toxicology gene expression databases may be generated, and used to identify additional liver toxicity biomarkers, which may also be employed in the practice of the liver inflammation prediction methods of the invention. […] An example of compounds, dose levels, liver toxicity classifications and histopathology scores used in the Examples which follow are provided in Table 1. The compounds and dose levels are abbreviated in the Abbreviation Column. The Inflammation Score relates the histopathology liver inflammation, a score of “2” or higher indicates histopathology of increasing severity.
Identification of Correlating Genes: For the purpose of identifying candidate predictive genes, the database preferably includes histopathology scores for each animal which has been exposed to one or more agent(s). […] The scores are numerical scores that reflect the occurrence and severity of histopathological changes. These scores can be adjusted to have similar range to gene expression changes. […] Because the scores are numerical, they are suitable for use with a variety of statistical correlation and similarity measures.
Sprague Dawley rats Crl:CD from Charles River, Raleigh, N.C. were divided into treated rats that receive a specific concentration of the compound (see Table 1) and the control rats that only received the vehicle in which the compound is mixed (e.g., saline).
At specified timepoints (6 h, 24 h and 72 h) after administration (intraperitoneal route) of the compound, a set number of rats (usually 3 control and 3 treated) were euthanized and tissues collected. Each rat was heavily sedated with an overdose of CO2 by inhalation and a maximum amount of blood drawn. Exsanguination of the rat by this drawing of blood kills the rat. The method of collecting the tissues is very important and ensures preserving the quality of the mRNA in the tissues. The body of the rat was then opened up and prosectors rapidly removed the tissues (including liver) and immediately placed them into liquid nitrogen. […] The organs/tissues were then packaged into well-labeled plastic freezer quality bags and stored at −80 degrees until needed for isolation of the mRNA from a portion of the organ/tissue sample.
Correlation with Histopathology Scores: Histopathology scores for each animal (assigned on a compound-dose basis as indicated in Table 1) were entered with gene expression data by using the GeneSpring™ ‘Drawn Gene’ function. Correlations between inflammation histopathology scores and gene expression were conducted with the distance measures listed below: […]

[1] = 0.5 mg/kg i.p., 72 h, 1=no histopathology, 2 or higher=increasing severity
[2] = 2 mg/kg i.p., 72 h, 1=no histopathology, 2 or higher=increasing severity
[3] = Sprague Dawley Crl:CD, rat, in vivo
[4] = 20 mg/kg i.p., 72 h, 1=no histopathology, 2 or higher=increasing severity
[5] = 12 mg/kg i.p., 72 h, 1=no histopathology, 2 or higher=increasing severity
[6] = 40 mg/kg i.p., 72 h, 1=no histopathology, 2 or higher=increasing severity
[7] = 160 mg/kg i.p., 72 h, 1=no histopathology, 2 or higher=increasing severity
[8] = 0.1 mg/kg i.p., 72 h, 1=no histopathology, 2 or higher=increasing severity
[9] = 0.4 mg/kg i.p., 72 h, 1=no histopathology, 2 or higher=increasing severity
[10] = Sprague Dawley Crl:CD, rat, in vivo, ip
[11] = 50 mg/kg i.p., 72 h, 1=no histopathology, 2 or higher=increasing severity
[12] = 200 mg/kg i.p., 72 h, 1=no histopathology, 2 or higher=increasing severity
[13] = 250 mg/kg i.p., 72 h, 1=no histopathology, 2 or higher=increasing severity
[14] = 1000 mg/kg i.p., 72 h, 1=no histopathology, 2 or higher=increasing severity
[15] = 1.3 mg/kg i.p., 72 h, 1=no histopathology, 2 or higher=increasing severity
[16] = 5 mg/kg i.p., 72 h, 1=no histopathology, 2 or higher=increasing severity
[17] = 80 mg/kg i.p., 72 h, 1=no histopathology, 2 or higher=increasing severity
[18] = 38 mg/kg i.p., 72 h, 1=no histopathology, 2 or higher=increasing severity
[19] = 150 mg/kg i.p., 72 h, 1=no histopathology, 2 or higher=increasing severity

C[C@@H]1C[C@@H]([C@H](O)CC2CC(=O)NC(=O)C2)C(=O)[C@@H](C)C1 [cycloheximide]
no: Liver Inflammation (0.5 mg/kg i.p., 72 h) | Liver Necrosis (0.5 mg/kg i.p., 72 h) | Liver Inflammation (2 mg/kg i.p., 72 h) | Liver Necrosis (2 mg/kg i.p., 72 h)
1: Inflamm. Score [1] | Necr. Score [1] | Inflamm. Score [2] | Necr. Score [2]

O=P1(N(CCCl)CCCl)NCCCO1 (centres unmarked) [cyclophosphamide]
1: Inflamm. Score [3] | Necr. Score [3]
no: Liver Inflammation (rat, in vivo) | Liver Necrosis (rat, in vivo)

C[C@@H]1C[C@H]2[C@@H]3CCC4=CC(=O)C=C[C@]4(C)[C@@]3(F)[C@@H](O)C[C@]2(C)[C@@]1(O)C(=O)CO [dexamethasone]
no: Liver Inflammation (rat, in vivo) | Liver Necrosis (rat, in vivo)
1: Inflamm. Score [3] | Necr. Score [3]

O=C(O)c1cc(-c2ccc(F)cc2F)ccc1O [diflunisal]
1: Inflamm. Score [3] | Necr. Score [3]
no: Liver Inflammation (rat, in vivo) | Liver Necrosis (rat, in vivo)

CN(C)N=O [dimethylnitrosamine]
9: Necr. Score [4]
yes: Liver Inflammation (20 mg/kg i.p., 72 h) | Liver Necrosis (20 mg/kg i.p., 72 h)
4: Inflamm. Score [4]

COc1cccc2c1C(=O)c1c(O)c3c(c(O)c1C2=O)C[C@@](O)(C(=O)CO)C[C@@H]3O[C@H]1C[C@H](N)[C@H](O)[C@H](C)O1 [doxorubicin]
no: Liver Inflammation (12 mg/kg i.p., 72 h) | Liver Necrosis (12 mg/kg i.p., 72 h)
1: Inflamm. Score [5] | Necr. Score [5]

CCC(=O)O[C@H]1[C@H](O[C@@H]2[C@@H](C)[C@H](O[C@H]3C[C@@](C)(OC)[C@@H](O)[C@H](C)O3)[C@@H](C)C(=O)O[C@H](CC)[C@@](C)(O)[C@H](O)[C@@H](C)C(=O)[C@H](C)C[C@@]2(C)O)O[C@H](C)C[C@@H]1N(C)C [erythromycin estolate]
1: Inflamm. Score [6] | Necr. Score [6] | Inflamm. Score [7] | Necr. Score [7]
no: Liver Inflammation (40 mg/kg i.p., 72 h) | Liver Necrosis (40 mg/kg i.p., 72 h) | Liver Inflammation (160 mg/kg i.p., 72 h) | Liver Necrosis (160 mg/kg i.p., 72 h)

C[C@]12CC[C@@H]3c4ccc(O)cc4CC[C@H]3[C@@H]1CC[C@@H]2O [estradiol]
1: Inflamm. Score [8] | Necr. Score [8] | Inflamm. Score [9] | Necr. Score [9]
no: Liver Inflammation (0.1 mg/kg i.p., 72 h) | Liver Necrosis (0.1 mg/kg i.p., 72 h) | Liver Inflammation (0.4 mg/kg i.p., 72 h) | Liver Necrosis (0.4 mg/kg i.p., 72 h)

CCO [ethanol]
1: Inflamm. Score [10] | Necr. Score [10]
no: Liver Inflammation (rat, in vivo, ip) | Liver Necrosis (rat, in vivo, ip)

Nc1nc(O)c2ncn(COC(CO)CO)c2n1 [gancyclovir]
1: Inflamm. Score [11] | Necr. Score [11] | Inflamm. Score [12] | Necr. Score [12]
no: Liver Inflammation (50 mg/kg i.p., 72 h) | Liver Necrosis (50 mg/kg i.p., 72 h) | Liver Inflammation (200 mg/kg i.p., 72 h) | Liver Necrosis (200 mg/kg i.p., 72 h)

NC(=O)NO [hydroxyurea]
1: Inflamm. Score [13] | Necr. Score [13] | Inflamm. Score [14] | Necr. Score [14]
no: Liver Inflammation (250 mg/kg i.p., 72 h) | Liver Necrosis (250 mg/kg i.p., 72 h) | Liver Inflammation (1000 mg/kg i.p., 72 h) | Liver Necrosis (1000 mg/kg i.p., 72 h)

NNC(=O)c1ccncc1 [isoniazid]
1: Inflamm. Score [11] | Necr. Score [11] | Inflamm. Score [12] | Necr. Score [12]
no: Liver Inflammation (50 mg/kg i.p., 72 h) | Liver Necrosis (50 mg/kg i.p., 72 h) | Liver Inflammation (200 mg/kg i.p., 72 h) | Liver Necrosis (200 mg/kg i.p., 72 h)

CC(=O)N1CCN(c2ccc(OCC3COC(Cn4ccnc4)(c4ccc(Cl)cc4Cl)O3)cc2)CC1 (centres unmarked) [ketoconazole]
1: Inflamm. Score [3] | Necr. Score [3]
no: Liver Inflammation (rat, in vivo) | Liver Necrosis (rat, in vivo)

CN(Cc1cnc2nc(N)nc(N)c2n1)c1ccc(C(=O)N[C@@H](CCC(=O)O)C(=O)O)cc1 [methotrexate]
1: Inflamm. Score [15] | Necr. Score [15] | Inflamm. Score [16] | Necr. Score [16]
no: Liver Inflammation (1.3 mg/kg i.p., 72 h) | Liver Necrosis (1.3 mg/kg i.p., 72 h) | Liver Inflammation (5 mg/kg i.p., 72 h) | Liver Necrosis (5 mg/kg i.p., 72 h)

C=CCN1CC[C@]23c4c5ccc(O)c4O[C@H]2C(=O)CC[C@@]3(O)[C@H]1C5 [naloxone]
1: Inflamm. Score [3] | Necr. Score [3] | Inflamm. Score [10] | Necr. Score [10]
no: Liver Inflammation (rat, in vivo) | Liver Necrosis (rat, in vivo) | Liver Inflammation (rat, in vivo, ip) | Liver Necrosis (rat, in vivo, ip)

CCC1(c2ccccc2)C(=O)NC(=O)NC1=O [phenobarbital]
no: Liver Inflammation (20 mg/kg i.p., 72 h) | Liver Necrosis (20 mg/kg i.p., 72 h) | Liver Inflammation (80 mg/kg i.p., 72 h) | Liver Necrosis (80 mg/kg i.p., 72 h)
1: Inflamm. Score [4] | Necr. Score [4] | Inflamm. Score [17] | Necr. Score [17]

NNc1ccccc1 [phenylhydrazine]
1: Inflamm. Score [4] | Necr. Score [4] | Inflamm. Score [17] | Necr. Score [17]
no: Liver Inflammation (20 mg/kg i.p., 72 h) | Liver Necrosis (20 mg/kg i.p., 72 h) | Liver Inflammation (80 mg/kg i.p., 72 h) | Liver Necrosis (80 mg/kg i.p., 72 h)

COc1ccc(C[C@H](N)C(=O)N[C@H]2[C@@H](O)[C@H](n3cnc4c(N(C)C)ncnc43)O[C@@H]2CO)cc1 [puromycin]
1: Inflamm. Score [18] | Necr. Score [18] | Inflamm. Score [19] | Necr. Score [19]
no: Liver Inflammation (38 mg/kg i.p., 72 h) | Liver Necrosis (38 mg/kg i.p., 72 h) | Liver Inflammation (150 mg/kg i.p., 72 h) | Liver Necrosis (150 mg/kg i.p., 72 h)
